# Species on record: Rattus norvegicus
# Assay: Open TG-GATES - Regimen: Daily Repeat
# Format: toxicity, organism-based, Sprague-Dawley
# Set-up: regimen Daily Repeat, gender Male, age 6 weeks
# Conditions: in vivo, iv, route intravenous injection; for gamma-GTP / ALP / ALT / AST / BUN / CRE / DBIL / GLC / IP / K / LDH / PL / RALB / TBIL / TC / TP / TG: tissue Plasma; for APTT / Bas / Eos / Fbg / Hb / Ht / Lym / MCH / MCHC / Mono / Neu / PT / Plat / RBC / Ret / WBC / MCV: tissue Blood; for KIDNEY_L / KIDNEY_R / KIDNEY_TOTAL: tissue Kidney; for LIVER: tissue Liver
# [1] = 30 mg/kg, 72 h, dose level Middle, time 3 day
# [2] = 30 mg/kg, […], dose level Middle, time 7 day
# [3] = 30 mg/kg, […], dose level Middle, time 14 day
# [4] = 30 mg/kg, […], dose level Middle, time 28 day
# [5] = 100 mg/kg, 72 h, dose level High, time 3 day
# [6] = 100 mg/kg, […], dose level High, time 7 day
# [7] = 100 mg/kg, […], dose level High, time 14 day
# [8] = 100 mg/kg, […], dose level High, time 28 day
sequence,measurement,setting,value
GENTAMICIN,gamma-GTP,"10 mg/kg, […], dose level Low, time 28 day",2 IU/L
same,TERMINAL_BW,[1],231.1 g
same,APTT,[1],22 s
same,Bas,[1],0%
same,Eos,[1],1%
same,Fbg,[1],292.8 mg/dL
same,Hb,[1],12.8 g/dL
same,Ht,[1],37.4%
same,Lym,[1],75.4%
same,MCH,[1],21 pg
same,MCHC,[1],34.2%
same,Mono,[1],3.2%
same,Neu,[1],19.8%
same,PT,[1],16.5 s
same,Plat,[1],116.2 x10_4/uL
same,RBC,[1],608.6 x10_4/ul
same,Ret,[1],5.4%
same,WBC,[1],99.7 x10_2/uL
same,KIDNEY_L,[1],1 g
same,KIDNEY_R,[1],1 g
same,KIDNEY_TOTAL,[1],2 g
same,ALP,[1],1568.4 IU/L
same,ALT,[1],38.4 IU/L
same,AST,[1],70.6 IU/L
same,BUN,[1],19 mg/dL
same,CRE,[1],0.2 mg/dL
same,DBIL,[1],0 mg/dL
same,GLC,[1],170.6 mg/dL
same,IP,[1],6.8 mg/dL
same,K,[1],4.7 meq/L
same,LDH,[1],175 IU/L
same,PL,[1],147.8 mg/dL
same,RALB,[1],3 g/dL
same,TBIL,[1],0.008 mg/dL
same,TC,[1],69.2 mg/dL
same,TP,[1],5.4 g/dL
same,gamma-GTP,[1],1.8 IU/L
same,TERMINAL_BW,[2],256.1 g
same,TERMINAL_BW,[3],289.4 g
same,TERMINAL_BW,[4],356.8 g
same,APTT,[2],24.3 s
same,Bas,[2],0%
same,Eos,[2],1.2%
same,Fbg,[2],303.4 mg/dL
same,Ht,[2],39%
same,Lym,[2],75%
same,MCH,[2],21 pg
same,MCHC,[2],34.7%
same,MCV,[2],60.6 fL
same,Mono,[2],4%
same,PT,[2],15.9 s
same,Plat,[2],111.1 x10_4/uL
same,RBC,[2],644.4 x10_4/ul
same,Ret,[2],4.1%
same,WBC,[2],106.4 x10_2/uL
same,APTT,[3],22.8 s
same,Bas,[3],0%
same,Eos,[3],0.8%
same,Fbg,[3],296.4 mg/dL
same,Ht,[3],40.3%
same,Lym,[3],81.4%
same,MCHC,[3],35.7%
same,MCV,[3],58.2 fL
same,Mono,[3],2.2%
same,Plat,[3],106 x10_4/uL
same,RBC,[3],693.6 x10_4/ul
same,Ret,[3],3.2%
same,WBC,[3],131.7 x10_2/uL
same,APTT,[4],23.3 s
same,Bas,[4],0%
same,Eos,[4],0.8%
same,Fbg,[4],308 mg/dL
same,Hb,[4],15.3 g/dL
same,Ht,[4],42.9%
same,Lym,[4],80.4%
same,MCH,[4],19.2 pg
same,MCHC,[4],35.7%
same,MCV,[4],53.7 fL
same,Mono,[4],2.4%
same,Plat,[4],107.2 x10_4/uL
same,RBC,[4],799 x10_4/ul
same,Ret,[4],1.8%
same,WBC,[4],106 x10_2/uL
same,KIDNEY_L,[2],1.1 g
same,KIDNEY_R,[2],1.1 g
same,KIDNEY_TOTAL,[2],2.1 g
same,KIDNEY_L,[3],1.2 g
same,KIDNEY_R,[3],1.2 g
same,KIDNEY_TOTAL,[3],2.4 g
same,KIDNEY_L,[4],1.5 g
same,KIDNEY_R,[4],1.6 g
same,KIDNEY_TOTAL,[4],3.1 g
same,LIVER,[2],10.8 g
same,LIVER,[3],10.8 g
same,LIVER,[4],12.3 g
same,ALP,[2],1481.6 IU/L
same,ALT,[2],40.6 IU/L
same,BUN,[2],17 mg/dL
same,CRE,[2],0.2 mg/dL
same,DBIL,[2],0 mg/dL
same,GLC,[2],174.8 mg/dL
same,IP,[2],6.1 mg/dL
same,K,[2],4.5 meq/L
same,LDH,[2],152.6 IU/L
same,PL,[2],146.8 mg/dL
same,RALB,[2],3 g/dL
same,TBIL,[2],0.006 mg/dL
same,TC,[2],72 mg/dL
same,TG,[2],131.4 mg/dL
same,TP,[2],5.6 g/dL
same,gamma-GTP,[2],1.6 IU/L
same,ALP,[3],1265.2 IU/L
same,ALT,[3],36.8 IU/L
same,AST,[3],67.6 IU/L
same,CRE,[3],0.2 mg/dL
same,DBIL,[3],0 mg/dL
same,GLC,[3],176.4 mg/dL
same,IP,[3],5.9 mg/dL
same,K,[3],4.3 meq/L
same,LDH,[3],144.8 IU/L
same,PL,[3],140.2 mg/dL
same,RALB,[3],3 g/dL
same,TBIL,[3],0.008 mg/dL
same,TC,[3],68.6 mg/dL
same,TG,[3],114 mg/dL
same,TP,[3],5.7 g/dL
same,gamma-GTP,[3],1.8 IU/L
same,ALP,[4],959 IU/L
same,ALT,[4],31 IU/L
same,CRE,[4],0.3 mg/dL
same,DBIL,[4],0.002 mg/dL
same,GLC,[4],176.4 mg/dL
same,IP,[4],5.6 mg/dL
same,K,[4],4.2 meq/L
same,LDH,[4],109.8 IU/L
same,PL,[4],130 mg/dL
same,RALB,[4],3 g/dL
same,TBIL,[4],0.01 mg/dL
same,TC,[4],68.4 mg/dL
same,TG,[4],103 mg/dL
same,TP,[4],5.8 g/dL
same,gamma-GTP,[4],2.2 IU/L
same,TERMINAL_BW,[5],229.2 g
same,APTT,[5],22 s
same,Bas,[5],0%
same,Eos,[5],1%
same,Fbg,[5],294.4 mg/dL
same,Ht,[5],38.2%
same,Lym,[5],80.8%
same,MCH,[5],21 pg
same,MCHC,[5],34.3%
same,MCV,[5],61.1 fL
same,Mono,[5],3.8%
same,Neu,[5],13%
same,PT,[5],16.5 s
same,Plat,[5],115 x10_4/uL
same,RBC,[5],625.8 x10_4/ul
same,Ret,[5],4.8%
same,WBC,[5],83.9 x10_2/uL
same,KIDNEY_L,[5],1 g
same,KIDNEY_R,[5],1 g
same,KIDNEY_TOTAL,[5],2 g
same,LIVER,[5],10 g
same,ALP,[5],1437 IU/L
same,AST,[5],67.4 IU/L
same,CRE,[5],0.2 mg/dL
same,DBIL,[5],0 mg/dL
same,GLC,[5],170 mg/dL
same,IP,[5],6.8 mg/dL
same,K,[5],4.7 meq/L
same,LDH,[5],137.2 IU/L
same,PL,[5],131.4 mg/dL
same,RALB,[5],3 g/dL
same,TBIL,[5],0.014 mg/dL
same,TC,[5],64.8 mg/dL
same,TG,[5],100 mg/dL
same,TP,[5],5.5 g/dL
same,gamma-GTP,[5],1.4 IU/L
same,TERMINAL_BW,[6],262.4 g
same,TERMINAL_BW,[7],275.2 g
same,TERMINAL_BW,[8],315.6 g
same,APTT,[6],24.3 s
same,Bas,[6],0%
same,Eos,[6],1.2%
same,Fbg,[6],314.2 mg/dL
same,Lym,[6],77.6%
same,MCHC,[6],34.5%
same,MCV,[6],60.6 fL
same,Mono,[6],4.2%
same,Plat,[6],106.7 x10_4/uL
same,RBC,[6],646.4 x10_4/ul
same,Ret,[6],4.3%
same,WBC,[6],117.3 x10_2/uL
same,APTT,[7],23.3 s
same,Bas,[7],0%
same,Eos,[7],1%
same,Fbg,[7],320.8 mg/dL
same,Lym,[7],83%
same,MCH,[7],21.1 pg
same,MCHC,[7],36.2%
same,MCV,[7],58.1 fL
same,Mono,[7],3%
same,PT,[7],16.4 s
same,Plat,[7],114.3 x10_4/uL
same,RBC,[7],701.8 x10_4/ul
same,Ret,[7],1.8%
same,WBC,[7],106.6 x10_2/uL
same,APTT,[8],23.9 s
same,Bas,[8],0%
same,Eos,[8],1.2%
same,Fbg,[8],282.2 mg/dL
same,Hb,[8],14.7 g/dL
same,Ht,[8],40.7%
same,Lym,[8],83.5%
same,MCH,[8],19 pg
same,MCHC,[8],36.1%
same,MCV,[8],52.6 fL
same,Mono,[8],2.2%
same,Neu,[8],11.5%
same,PT,[8],16.5 s
same,Plat,[8],118.3 x10_4/uL
same,RBC,[8],773 x10_4/ul
same,Ret,[8],1.3%
same,WBC,[8],112.9 x10_2/uL
same,KIDNEY_L,[6],1.2 g
same,KIDNEY_R,[6],1.2 g
same,KIDNEY_TOTAL,[6],2.5 g
same,KIDNEY_L,[7],1.5 g
same,KIDNEY_R,[7],1.5 g
same,KIDNEY_TOTAL,[7],3 g
same,KIDNEY_L,[8],1.6 g
same,KIDNEY_R,[8],1.7 g
same,KIDNEY_TOTAL,[8],3.3 g
same,LIVER,[6],10.9 g
same,LIVER,[7],10.2 g
same,ALP,[6],1249 IU/L
same,ALT,[6],39.8 IU/L
same,AST,[6],73 IU/L
same,CRE,[6],0.2 mg/dL
same,DBIL,[6],0 mg/dL
same,GLC,[6],182.6 mg/dL
same,IP,[6],6 mg/dL
same,K,[6],4.6 meq/L
same,LDH,[6],158.8 IU/L
same,PL,[6],139.8 mg/dL
same,RALB,[6],3 g/dL
same,TBIL,[6],0.004 mg/dL
same,TC,[6],71 mg/dL
same,TG,[6],91.4 mg/dL
same,TP,[6],5.6 g/dL
same,gamma-GTP,[6],2 IU/L
same,ALP,[7],1114.5 IU/L
same,ALT,[7],33.5 IU/L
same,AST,[7],71.8 IU/L
same,BUN,[7],20 mg/dL
same,CRE,[7],0.3 mg/dL
same,DBIL,[7],0 mg/dL
same,IP,[7],6 mg/dL
same,K,[7],4.2 meq/L
same,PL,[7],148.8 mg/dL
same,RALB,[7],3.1 g/dL
same,TBIL,[7],0.015 mg/dL
same,TC,[7],81.8 mg/dL
same,TG,[7],98.2 mg/dL
same,TP,[7],5.7 g/dL
same,gamma-GTP,[7],2.5 IU/L
same,ALP,[8],662.5 IU/L
same,AST,[8],67 IU/L
same,BUN,[8],18 mg/dL
same,CRE,[8],0.3 mg/dL
same,DBIL,[8],0 mg/dL
same,IP,[8],5.8 mg/dL
same,K,[8],3.6 meq/L
same,LDH,[8],109.2 IU/L
same,PL,[8],112 mg/dL
same,RALB,[8],3.1 g/dL
same,TBIL,[8],0.03 mg/dL
same,TC,[8],67 mg/dL
same,TG,[8],40 mg/dL
same,TP,[8],5.9 g/dL
same,gamma-GTP,[8],2.5 IU/L

# From ChEMBL document CHEMBL3885861, “Open TG-GATES”
